Reference: patent US20180099931A1 (AbbVie S.à.r.l., priority 2016, published 2018)
Like-named read-outs stand apart in the source and are kept apart here.

Target: T1, F508delCFTR (Homo sapiens, UniProt P13569, DEL508-508)
T1 construct: expressed in transfected cells; host or cells: CFBE41o- human lung-derived epithelial cells (CFBE4lo-F508delCFTR-HRP), doxycycline-inducible
Assay: Cell Surface Expression-Horse Radish Peroxidase (CSE-HRP) Assay;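 on Maximum % activity (with co-corrector): co-corrector and positive control are both the same reference corrector at 2 µM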;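 on Maximum % activity (without co-corrector): percent of the 2 µM on-plate positive control corrector response above DMSO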
Format: cell-based
Conditions: for Emax: read-out: Maximum % activity (without co-corrector)

[1] = test compound without co-corrector, maximum at any tested concentration, normalized to on-plate positive control
[2] = test compound without co-corrector, read-out: EC50 (without co-corrector)
[3] = with co-corrector (2 μM of 3-[(2R,4R)-4-({[1-(2,2-difluoro-1,3-benzodioxol-5-yl)cyclopropyl]carbonyl}amino)-7-methoxy-3,4-dihydro-2H-chromen-2-yl]benzoic acid), read-out: EC50 (with co-corrector)
[4] = with co-corrector (2 μM), maximum at any tested concentration, normalized to on-plate positive control
[5] = with co-corrector (2 μM of 3-[(2R,4R)-4-({[1-(2,2-difluoro-1,3-benzodioxol-5-yl)cyclopropyl]carbonyl}amino)-7-methoxy-3,4-dihydro-2H-chromen-2-yl]benzoic acid), maximum at any tested concentration, normalized to on-plate positive control
[6] = CSE-HRP, test compound without co-corrector, read-out: EC50 (without co-corrector)
[7] = CSE-HRP, with co-corrector (2 μM of 3-[(2R,4R)-4-({[1-(2,2-difluoro-1,3-benzodioxol-5-yl)cyclopropyl]carbonyl}amino)-7-methoxy-3,4-dihydro-2H-chromen-2-yl]benzoic acid), read-out: EC50 (with co-corrector)
[8] = CSE-HRP, with co-corrector (2 μM), maximum at any tested concentration, normalized to on-plate positive control
[9] = CSE-HRP, without co-corrector, maximum at any tested concentration, normalized to on-plate positive control
[10] = without co-corrector, maximum at any tested concentration, normalized to on-plate positive control

T1 sequence (P13569 with tags, fused parts or gaps DEL508-508): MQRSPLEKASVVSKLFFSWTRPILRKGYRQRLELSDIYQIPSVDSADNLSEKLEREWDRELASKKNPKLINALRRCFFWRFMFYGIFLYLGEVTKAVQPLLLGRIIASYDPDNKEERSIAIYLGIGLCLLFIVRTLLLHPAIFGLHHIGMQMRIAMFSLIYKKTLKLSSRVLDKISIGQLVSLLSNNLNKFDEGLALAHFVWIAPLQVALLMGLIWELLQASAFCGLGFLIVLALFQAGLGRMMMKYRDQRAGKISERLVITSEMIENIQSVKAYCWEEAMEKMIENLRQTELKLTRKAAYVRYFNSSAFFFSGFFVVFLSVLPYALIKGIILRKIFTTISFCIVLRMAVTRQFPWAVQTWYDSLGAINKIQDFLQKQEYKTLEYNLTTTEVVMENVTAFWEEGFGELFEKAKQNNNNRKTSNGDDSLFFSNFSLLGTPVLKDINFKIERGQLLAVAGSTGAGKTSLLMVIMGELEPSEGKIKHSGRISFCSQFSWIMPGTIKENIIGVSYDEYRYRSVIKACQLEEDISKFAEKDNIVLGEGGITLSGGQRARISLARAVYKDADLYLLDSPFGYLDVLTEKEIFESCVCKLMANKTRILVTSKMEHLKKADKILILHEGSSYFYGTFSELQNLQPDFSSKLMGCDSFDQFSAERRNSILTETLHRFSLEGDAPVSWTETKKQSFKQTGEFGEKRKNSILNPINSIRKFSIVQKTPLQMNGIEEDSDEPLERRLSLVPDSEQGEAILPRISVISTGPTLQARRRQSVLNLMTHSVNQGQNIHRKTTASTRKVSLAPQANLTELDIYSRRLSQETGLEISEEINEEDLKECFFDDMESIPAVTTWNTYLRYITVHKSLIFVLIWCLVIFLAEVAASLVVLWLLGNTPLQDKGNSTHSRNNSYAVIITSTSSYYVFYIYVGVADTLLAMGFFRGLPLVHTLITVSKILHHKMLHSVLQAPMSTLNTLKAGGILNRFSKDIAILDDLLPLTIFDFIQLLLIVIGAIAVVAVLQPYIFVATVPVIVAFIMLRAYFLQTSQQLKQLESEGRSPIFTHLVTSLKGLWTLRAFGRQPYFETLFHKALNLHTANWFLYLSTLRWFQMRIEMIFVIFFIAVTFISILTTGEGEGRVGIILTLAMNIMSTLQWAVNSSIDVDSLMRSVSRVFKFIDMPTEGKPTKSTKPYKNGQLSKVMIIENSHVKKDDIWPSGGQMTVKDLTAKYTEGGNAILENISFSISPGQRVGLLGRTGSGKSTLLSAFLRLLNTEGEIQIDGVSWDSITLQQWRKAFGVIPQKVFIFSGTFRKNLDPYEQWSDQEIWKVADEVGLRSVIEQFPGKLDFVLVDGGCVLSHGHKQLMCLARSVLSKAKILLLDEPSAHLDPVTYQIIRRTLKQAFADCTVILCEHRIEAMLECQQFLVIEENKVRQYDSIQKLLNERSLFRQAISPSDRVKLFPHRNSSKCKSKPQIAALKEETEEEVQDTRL

| Emax [1] | EC50 [2] | EC50 [3] | Maximum % activity (with co-corrector) [4] | Maximum % activity (with co-corrector) [5] | EC50 [6] | EC50 [7] | Maximum % activity (with co-corrector) [8] | Maximum % activity (without co-corrector) [9] | Emax [9] | Emax [10] | Compound |
| --- | --- | --- | --- | --- | --- | --- | --- | --- | --- | --- | --- |
| 100 to 200% | < 1 µM | < 1 µM | +++ (≥350) |  |  |  |  |  |  |  | COc1ccc(C(F)(F)F)cc1CN[C@H]1[C@H](C(C)(C)C)[C@@H](C(=O)O)N(C(=O)C2CCC(C)(C)C2)[C@H]1c1ccccc1 (stereo partly shown) [III-197] |
| 100 to 200% | 1 to 10 µM | 1 to 10 µM |  | +++ (≥350) |  |  |  |  |  |  | COc1cccc([C@@H]2[C@H](NCc3ccc(Cl)cc3OC)[C@@H](C(C)(C)C)[C@H](C(=O)O)N2C(=O)C2CCCCC2)n1 (racemic) [III-67] |
| > 200% | 1 to 10 µM | 1 to 10 µM |  | +++ (≥350) |  |  |  |  |  |  | COc1ccc(C2(C)CCC2)cc1CN[C@H]1[C@H](C(C)(C)C)[C@@H](C(=O)O)N(C(=O)OC(C)C)[C@H]1c1ccccc1 [II-537] |
|  |  |  |  |  | 1 to 10 µM | 1 to 10 µM | +++ (≥350) | +++ (≥200) |  |  | COc1ccc(C(C)(C)C)cc1CN[C@H]1[C@H](C(C)(C)C)[C@@H](C(=O)O)N(C(=O)C(C)n2cc(Cl)c(C)n2)[C@H]1c1ccccc1 (single isomer, unassigned) [III-182] |
|  |  |  |  |  | 1 to 10 µM | 1 to 10 µM | +++ (≥350) |  | 100 to 200% |  | COc1cc(Cl)ccc1CN[C@@H]1[C@@H](C(C)(C)C)[C@H](C(=O)O)N(C(=O)[C@@H]2CCC[C@@H](OC)C2)[C@@H]1c1ccccc1 (racemic) [II-38] |
|  |  |  |  |  | 1 to 10 µM | 1 to 10 µM | ++ (≥150 and <350) |  | < 100% |  | COc1cc(C)ccc1CN[C@H]1[C@H](C(C)(C)C)[C@@H](C(=O)O)N(C(=O)[C@@H]2CCCCO2)[C@H]1c1cccnc1OC [II-123] |
|  |  |  |  |  | 1 to 10 µM | 1 to 10 µM | +++ (≥350) |  | 100 to 200% |  | COc1ccc(C(C)(C)C)cc1CN[C@H]1[C@H](C(C)(C)C)[C@@H](C(=O)O)N(C(=O)Cc2nn(C)c(=O)c3ccccc23)[C@H]1c1ccccc1 [II-221] |
|  | 1 to 10 µM | 1 to 10 µM | +++ (≥350) |  |  |  |  |  |  | 100 to 200% | COc1ccc(C2(C#N)CCC2)cc1CN[C@H]1[C@H](C(C)(C)C)[C@@H](C(=O)O)N(C(=O)C2CCCCC2)[C@H]1c1ccccc1 [Example I-155] |
|  | < 1 µM | < 1 µM | +++ (≥350) |  |  |  |  |  |  | > 200% | COc1ccc(CC(C)C)cc1CN[C@H]1[C@H](C(C)(C)C)[C@@H](C(=O)O)N(C(=O)C2CCCCC2)[C@H]1c1ccccc1 [Example I-94] |
|  |  |  |  |  | 1 to 10 µM | 1 to 10 µM | ++ (≥150 and <350) |  | < 100% |  | COc1ccc(F)c(CN[C@H]2[C@H](C(C)(C)C)[C@@H](C(=O)O)N(C(=O)C3CCCCC3)[C@H]2c2ccccc2)c1 [II-106] |
| > 200% | 1 to 10 µM | 1 to 10 µM |  | +++ (≥350) |  |  |  |  |  |  | C=CCCOC(=O)N1[C@H](C(=O)O)[C@@H](C(C)(C)C)[C@H](NCc2cc(C(C)(C)C)ccc2OC)[C@@H]1c1ccccc1 [II-387] |
|  | 1 to 10 µM | 1 to 10 µM | +++ (≥350) |  |  |  |  |  |  | 100 to 200% | COc1ccc(C(F)(F)F)cc1CN[C@H]1[C@H](C(C)(C)C)[C@@H](C(=O)O)N(C(=O)C2CCC(C(F)(F)F)C2)[C@H]1c1ccccc1 (stereo partly shown) [Example I-163] |
|  |  |  |  |  | 1 to 10 µM | 1 to 10 µM | +++ (≥350) |  | > 200% |  | COc1ccc(C(C)C)cc1CN[C@@H]1[C@@H](C(C)(C)C)[C@H](C(=O)O)N(C(=O)OC(C)C)[C@@H]1c1ccccc1 (racemic) [II-44] |
|  | 1 to 10 µM | 1 to 10 µM | +++ (≥350) |  |  |  |  |  |  | < 100% | COc1ccc(C(F)(F)F)cc1CN[C@@H]1[C@@H](C(C)(C)C)[C@H](C(=O)O)N(C(=O)C(C)Oc2ccccc2)[C@@H]1c1ccccc1 (relative stereo) [Example I-32] |
|  |  |  |  |  | 1 to 10 µM | 1 to 10 µM | +++ (≥350) |  | > 200% |  | COc1ccc(C(F)(F)F)cc1CN[C@@H]1[C@@H](C(C)(C)C)[C@H](C(=O)O)N(C(=O)[C@H]2CCCO[C@H]2C)[C@@H]1c1ccccc1 (racemic) [II-35] |
|  |  |  |  |  | > 10 µM | 1 to 10 µM | ++ (≥150 and <350) |  | < 100% |  | Cc1cc(C(F)(F)F)cc(N[C@@H]2[C@@H](C(C)(C)C)[C@H](C(=O)O)N(C(=O)Cc3ccccc3)[C@@H]2c2ccccc2)n1 (racemic) [II-55] |
|  | 1 to 10 µM | 1 to 10 µM | +++ (≥350) |  |  |  |  |  |  | > 200% | COc1ncc(C2CC3CCC2C3)cc1CN[C@H]1[C@H](C(C)(C)C)[C@@H](C(=O)O)N(C(=O)C2CCCCC2)[C@H]1c1cccnc1N(C)C (stereo partly shown) [Example I-133] |
| < 100% | > 10 µM | 1 to 10 µM | ++ (≥150 and <350) |  |  |  |  |  |  |  | CC(C)(C)[C@H]1[C@H](NCc2cc3ccccc3nc2O)[C@H](c2ccccc2)N(C(=O)C2CCCCC2)[C@@H]1C(=O)O [III-180] |
|  |  |  |  |  | 1 to 10 µM | 1 to 10 µM | +++ (≥350) |  | 100 to 200% |  | Cc1c(N[C@H]2[C@H](C(C)(C)C)[C@@H](C(=O)O)N(C(=O)C3CCCCC3)[C@H]2c2ccccc2)c(Cl)nc2ccc(F)cc12 [II-144] |
| > 200% | 1 to 10 µM | 1 to 10 µM |  | +++ (≥350) |  |  |  |  |  |  | COc1ccc(C(C)(C)C)cc1CN[C@H]1[C@H](C(C)(C)C)[C@@H](C(=O)O)N(C(=O)[C@H]2CCCCO2)[C@H]1c1ccccc1 [II-451] |
|  | > 10 µM | > 10 µM | + (<150) |  |  |  |  |  |  | < 100% | COc1cc(C(C)(C)O)ccc1CN[C@H]1[C@H](C(C)(C)C)[C@@H](C(=O)O)N(C(=O)C2CCCCC2)[C@H]1c1ccccc1 [Example I-89] |
| 100 to 200% | 1 to 10 µM | < 1 µM |  | +++ (≥350) |  |  |  |  |  |  | COc1nc(C(C)(C)C)ccc1CN[C@H]1[C@H](C(C)(C)C)[C@@H](C(=O)O)N(C(=O)OC(C)C)[C@H]1c1ccccc1F [II-519] |
|  | < 1 µM | < 1 µM | +++ (≥350) |  |  |  |  |  |  | > 200% | COc1ccc(C(C)(C)C)cc1CN[C@H]1[C@H](C(C)(C)C)[C@@H](C(=O)O)N(C(=O)C2CCCCO2)[C@H]1c1ccccc1C(C)C (relative stereo) [Example 62, (2S,3S,4S,5S)-3-tert-butyl-4-{[(5-tert-butyl-2-methoxyphenyl)methyl]amino}-1-[(2S*)-oxane-2-carbonyl]-5-[2-(propan-2-yl)phenyl]pyrrolidine-2-carboxylic acid] |
| > 200% | 1 to 10 µM | < 1 µM |  | +++ (≥350) |  |  |  |  |  |  | COc1ccc(C2(C(F)(F)F)CC2)cc1CN[C@H]1[C@H](C(C)(C)C)[C@@H](C(=O)O)N(C(=O)C2CCCCC2)[C@H]1c1ccccc1F [II-353] |
| > 200% | 1 to 10 µM | 1 to 10 µM | +++ (≥350) |  |  |  |  |  |  |  | COc1cc2c(cc1CN[C@H]1[C@H](C(C)(C)C)[C@@H](C(=O)O)N(C(=O)OC(C)C)[C@H]1c1ccccc1)CCC2 [III-226] |
| 100 to 200% | 1 to 10 µM | 1 to 10 µM |  | +++ (≥350) |  |  |  |  |  |  | COc1nc(C(C)(C)C)ccc1CN[C@H]1[C@H](C(C)(C)C)[C@@H](C(=O)O)N(C(=O)C2CCCCC2)[C@H]1c1ccccc1OC(F)F [II-528] |
|  | < 1 µM | < 1 µM | +++ (≥350) |  |  |  |  |  |  | > 200% | COc1ccc(-c2ccccc2)cc1CN[C@H]1[C@H](C(C)(C)C)[C@@H](C(=O)O)N(C(=O)C2CCCCC2)[C@H]1c1ccccc1 [Example I-48] |
|  |  |  |  |  | < 1 µM | < 1 µM | +++ (≥350) |  | > 200% |  | COc1ccc(C(C)(C)C)cc1CN[C@H]1[C@H](C(C)(C)C)[C@@H](C(=O)O)N(C(=O)C2CC2c2ccc(F)cc2)[C@H]1c1ccccc1 (stereo partly shown) [II-307] |
|  | 1 to 10 µM | 1 to 10 µM | +++ (≥350) |  |  |  |  |  |  | < 100% | CC(C)(C)[C@H]1[C@H](Nc2cc(C(F)(F)F)cc(C3CCC3)n2)[C@H](c2ccccc2)N(C(=O)C2CCCCC2)[C@@H]1C(=O)O [Example I-67] |

| Compound | Emax [1] | EC50 [2] | EC50 [3] | Maximum % activity (with co-corrector) [4] | Maximum % activity (with co-corrector) [5] | EC50 [6] | EC50 [7] | Maximum % activity (with co-corrector) [8] | Maximum % activity (without co-corrector) [9] | Emax [9] | Emax [10] |
| --- | --- | --- | --- | --- | --- | --- | --- | --- | --- | --- | --- |
| COc1ncc([Si](C)(C)C)cc1CN[C@H]1[C@H](C(C)(C)C)[C@@H](C(=O)O)N(C(=O)C2CCCCC2)[C@H]1c1ccccc1 [Example 47, (2S,3S,4S,5S)-3-tert-butyl-1-(cyclohexanecarbonyl)-4-({[2-methoxy-5-(trimethylsilyl)pyridin-3-yl]methyl}amino)-5-phenylpyrrolidine-2-carboxylic acid] |  | < 1 µM | < 1 µM |  |  |  |  |  |  |  |  |
